Publication PMC7442255, “Characterization of the Corynebacterium glutamicum dehydroshikimate dehydratase QsuB and its potential for microbial production of protocatechuic acid” (PLoS ONE, 2020)
Values joined by “and” are separate entries in the source; they are usually repeats but may differ in a detail not shown here. Equal values may be shown once. Read-outs that look alike come from different tables or passages of the source.

Tests used:
QsuB = QsuB (Corynebacterium glutamicum, UniProt Q8NT86); assay: DSD activity assay of purified QsuB (3,4-DHBA formation at 290 nm); type: biochemical
Sequence of QsuB (Q8NT86 entry or part of it): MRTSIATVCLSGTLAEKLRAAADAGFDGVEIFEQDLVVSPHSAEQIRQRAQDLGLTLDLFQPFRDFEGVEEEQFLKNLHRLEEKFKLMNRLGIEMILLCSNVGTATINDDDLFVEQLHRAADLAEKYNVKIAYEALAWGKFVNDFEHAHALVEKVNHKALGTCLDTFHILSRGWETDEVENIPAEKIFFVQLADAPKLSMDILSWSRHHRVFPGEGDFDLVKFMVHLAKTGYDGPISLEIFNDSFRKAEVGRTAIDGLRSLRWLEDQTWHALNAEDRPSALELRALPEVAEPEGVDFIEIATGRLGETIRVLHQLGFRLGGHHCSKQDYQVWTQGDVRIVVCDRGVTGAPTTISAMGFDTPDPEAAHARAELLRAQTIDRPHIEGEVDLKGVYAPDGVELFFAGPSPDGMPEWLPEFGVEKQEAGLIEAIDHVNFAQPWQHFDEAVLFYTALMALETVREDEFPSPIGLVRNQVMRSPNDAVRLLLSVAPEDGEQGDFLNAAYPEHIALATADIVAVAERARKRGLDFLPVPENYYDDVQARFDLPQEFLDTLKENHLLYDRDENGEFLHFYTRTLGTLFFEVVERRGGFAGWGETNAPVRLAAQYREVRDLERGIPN

N-QsuB = N-QsuB (Corynebacterium glutamicum, UniProt Q8NT86); assay: DSD activity assay of purified N-QsuB (N-terminal domain of QsuB); type: biochemical
QsuB C-terminal domain = assay: Test of dioxygenase activity of the C-terminal domain towards 3,4-DHBA (UV spectrum); type: biochemical, Corynebacterium glutamicum; conditions: pH 7.5, incubation with QsuB up to 60 min
Method: An inhibition type and inhibition constants of the enzyme reaction were determined by a graphical method. The experimental data were plotted as (Vmax–v)/v versus the inhibitor concentration (0 ‒ 0.4 mM 3,4-DHBA) at 0.5/ 1/ 1.5 mM concentrations of DHS, where Vmax and v represented the maximal velocity and the velocity in the absence and presence of inhibitor with given concentrations of the substrate, respectively. The dioxygenase activity of the C-terminal domain was tested with the crude extracts in the reaction mixture of 0.1 M Tris/HCl buffer (pH 7.5), 10 mM MgCl2, 0.1 mM DHBA, and 30 nM of overall protein.
Thus, a possible activity of the C-terminal domain leading to conversion of 3,4-DHBA into another product was not detected under our experimental conditions.

[1] = molecular target: QsuB, dehydroshikimate dehydratase (DSD) from Corynebacterium glutamicum (Corynebacterium glutamicum); assay: SEC; Superose 6 Increase 10/300 GL; 50 mM Tris-HCl (pH 7.5), 500 mM NaCl, 5% v/v glycerol; 0.4 ml/min; A280; mass from a calibration curve of standard proteins; self-association of QsuB
[2] = molecular target: N-QsuB, N-terminal domain of QsuB (Corynebacterium glutamicum); assay: SEC; Superose 6 Increase 10/300 GL; 50 mM sodium phosphate (pH 7.0), 150 mM NaCl; 0.5 ml/min; A280; mass from a calibration curve of standard proteins; self-association of N-QsuB
C. glutamicum = conditions: cited from earlier work
E. coli = conditions: cited from earlier work
QuiC1 = tested on: QuiC1; set-up: method as in PMID 27706847; conditions: cited from earlier work
AsbF B. t. 97-27 = tested on: AsbF B. t. 97-27; set-up: method as in PMID 18975921; conditions: pH 8.6, 37°C ref [12], cited from earlier work
[3] = substrate: O=C(O)C1=CC(=O)C(O)C(O)C1; assay: DSD activity assay of purified N-QsuB (N-terminal domain of QsuB); type: biochemical, Corynebacterium glutamicum; conditions: other: N-QsuB, pH 7.5, 20°C
[4] = QsuB, 1 mM DHS, 10 mM metal salt, normalized against cobalt
[5] = N-QsuB, 1 mM DHS, 10 mM metal salt, normalized against cobalt

For O=C(O)c1ccc(O)c(O)c1 [3,4-DHBA, 3,4-dihydroxybenzoic acid], the inhibition type (QsuB; QsuB, quotient velocity plot) was “mix inhibition type”, the “Ki' (binding to the enzyme-substrate complex)” value (QsuB; QsuB, quotient velocity plot, 0.5/1/1.5 mM DHS) was ~ 0.96 mM and the Ki (QsuB; QsuB, quotient velocity plot, 0.5/1/1.5 mM DHS, read-out: Ki (binding to the enzyme)) was roughly 380 µM. For the same molecule, the inhibition type (N-QsuB; N-QsuB, quotient velocity plot) was “noncompetitive inhibition”, the Ki (N-QsuB; N-QsuB, quotient velocity plot, 0.5/1/1.5 mM DHS, read-out: Ki (binding to the enzyme)) was roughly 690 µM and the “conversion of 3,4-DHBA (change of UV spectrum)” value (QsuB C-terminal domain) was “no difference in the UV spectrum was observed”.

In the case of “QsuB, dehydroshikimate dehydratase (DSD) from Corynebacterium glutamicum (enzyme)”, the percent present as monomers [1] is reported as 15%, the percent present as octamers [1] is reported as 60% and the percent present as tetramers [1] is reported as 25%. For the same molecule, the stoichiometry N [1] was 8 and 4.

In the case of [Cl-].[Cl-].[Mg+2] [Mg, MgCl2], the “Specific activity (relative DSD activity with divalent metal)” value (QsuB; [4]) is reported as 24% and the “Specific activity (relative DSD activity with divalent metal)” value (N-QsuB; [5]) is reported as 22%.

For O=C(O)CN(CCN(CC(=O)O)CC(=O)O)CC(=O)O [EDTA], the “effect on DSD activity without added metal ions” value (QsuB) was “inhibited” and the “effect on DSD activity without added metal ions” value (N-QsuB) was “inhibited”.

“N-QsuB, N-terminal domain of QsuB (domain or fragment)” gave a stoichiometry N [2] of 2.

For [Cl-].[Cl-].[Co+2] [Co, CoCl2], the “Specific activity (relative DSD activity with divalent metal)” value (QsuB) is given as 100%, the “Specific activity (relative DSD activity with divalent metal)” value (N-QsuB) is given as 100% and the “Co^2+ concentration at which growth is possible” value (C. glutamicum) is given as 2 mM. For the same molecule, the “Co^2+ concentration tolerated” value (E. coli) was less than 1 mM.

O=C(O)C1=CC(=O)C(O)C(O)C1 (stereo not shown) [DHS, 3-dehydroshikimic acid] gave a kcat (QsuB; QsuB, substrate DHS, pH 7.5, 20°C) of 60.8 ± 0.9 s⁻¹, an IC50 (QsuB; QsuB, substrate inhibition, calculated from data of Fig 6, read-out: IC50 (decrease of DSD activity by substrate DHS)) of roughly 4.2 mM and an IC50 (N-QsuB; N-QsuB, substrate inhibition, calculated from data of Fig 6, read-out: IC50 (decrease of DSD activity by substrate DHS)) of roughly 5.5 mM. The Km (QuiC1; QuiC1, pH 7.5, 25°C ref [15], read-out: Km (DHS)) was 331 ± 51 µM, the kcat (QuiC1; QuiC1, substrate DHS, pH 7.5, 25°C ref [15]) was 163.6 ± 8.5 s⁻¹ and the Km (AsbF B. t. 97-27; read-out: Km (DHS)) was 125 ± 14 µM. For the same molecule, the kcat (AsbF B. t. 97-27; substrate DHS) was 3.6 ± 0.2 s⁻¹.

For [Cl][Mn][Cl] [Mn, MnCl2], the “Specific activity (relative DSD activity with divalent metal)” value (QsuB; [4]) was 17% and the “Specific activity (relative DSD activity with divalent metal)” value (N-QsuB; [5]) was 21%.

B1: N-QsuB (Corynebacterium glutamicum ATCC 13032) (protein)
chain: MRTSIATVCLSGTLAEKLRAAADAGFDGVEIFEQDLVVSPHSAEQIRQRAQDLGLTLDLFQPFRDFEGVEEEQFLKNLHRLEEKFKLMNRLGIEMILLCSNVGTATINDDDLFVEQLHRAADLAEKYNVKIAYEALAWGKFVNDFEHAHALVEKVNHKALGTCLDTFHILSRGWETDEVENIPAEKIFFVQLADAPKLSMDILSWSRHHRVFPGEGDFDLVKFMVHLAKTGYDGPISLEIFNDSFRKAEVGRTAIDGLRSLRWLEDQTWHALNAEDRPSALELRALPEVAEPEGVDF
B1 gave a Km [3] of 473 ± 71 µM, a kcat [3] of 23.4 ± 0.4 s⁻¹ and a kcat/Km [3] of 49500 ± 5600 M⁻¹ s⁻¹.
